According to patent US6673749B1, “Use of phyllocladane diterpenoids for plant growth promotion and alleviation of growth retardant allelochemicals, and method therefor” (Council of Scientific and Industrial Research, priority 2002, dated 2004):

Columns and labels:
Assay type in all cases: in vivo
Hordeum vulgare = assay: Seed germination and seedling shoot/root growth test in petridishes; details: control = 100%
Procedure: (§1) As noted above the activity of phyllocladane diterpenoids used in the practice of this invention was observed when these compounds were tested for their effects on seed germination, root and shoot growth of certain plant species and their antagonistic effect on plant growth retardants by the method described by Bagchi G. D. et al Phytochemistry, 45(6)1131-1133, 1997.
(§2) Plant growth promoting activity of calliterpenone, calliterpenone monoacetate, and calliterpenone di-acetate was examined at 0.1, 0.01 and 0.001 μM concentrations. The tests were conducted against seeds of two monocotyledonous (Hordeum vulgare and Triticum aestivum) and two dicotyledonous plants (Vigna radiata and Trigonella foenum-graecum). Control seeds were germinated in distilled water and all the observations were compared with […]. The root and shoot growth of all the plant species were affected by the phyllocladane diterpenoids, although the extent of effect varied considerably in the plant species with the chemicals and their concentrations. […] Details of the procedure adopted and results obtained are discussed in the various examples.
(§3) 100 ml stalk solutions of 0.1 μM concentration were prepared by dissolving required amounts of various test compounds (depending upon their molecular weights) in minimum amount of ethanol or acetone and adding distilled water. From this stalk solution, 0.01 μM and 0.001 μM concentrations were prepared. Calliterpenone and calliterpenone di acetate was dissolved in 2.0 ml absolute ethanol (Merc), while; calliterpenone monoacetate, isopropylideno calliterpenone and trihydroxy calliterpenone were dissolved in 2.0 ml spectral grade acetone (Ranbaxy). The respective control test solutions of distilled water of each concentration also contained equal amount of absolute ethanol or acetone. For an assay, 10 seeds were placed on Whatman filter paper (moistened with 5.0 ml of test solution in a 9.0 cm diameter petridish (in triplicate). The pteridishes were incubated for 9 days in a germinator, maintained at 25.0±1.0° C. with 90% humidity and 4 hr light/day. At the end of incubation, observations were recorded on the seedlings in terms of germination, shoot and root growth. The data on the length of shoot and root of seedlings and number of seeds germinated in different concentrations of compounds were compared with the control, which was taken as 100%. The data thus obtained were presented in Table-1.
(§4) Root growth of seedlings was measured in the similar way as shoot growth from the experiment as described in Example 1.
(§5) Effect of test compounds on germination was observed from the same experiment as described in Example 1.

[1] = system: Trigonella foenum-graecum; assay: as above; details: for Percent (%) germination of seeds in relation to control on 9th day after sowing / Percent (%) root growth of seedlings in relation to control on 9th day after sowing / Percent (%) shoot growth of seedlings in relation to control on 9th day after sowing: Trigonella foenum graecum, control = 100%
Procedure: as §1, §2, §3, §4, §5

Triticum aestivum = assay: as above; details: control = 100%
Procedure: as §1, §2, §3, §4, §5

Vigna radiata = assay: as above; details: for Percent (%) germination of seeds in relation to control on 9th day after sowing / Percent (%) root growth of seedlings in relation to control on 9th day after sowing / Percent (%) shoot growth of seedlings in relation to control on 9th day after sowing: Vigna radiata, control = 100%
Procedure: as §1, §2, §3, §4, §5

Hibiscus sabdariffa = assay: Seed germination and seedling growth, comparison with GA3 (Example 4)
Procedure: as §3
(§6) Effect of calliterpenone and its derivatives on seed germination and seedling growth in Hibiscus sabdariffa and Sesbania cannabina were measured in the similar way as these were measured in Example-1.

Sesbania cannabina = assay: as above
Procedure: as §3, §6

C=C1C[C@]23C[C@@]1(O)CC[C@H]2[C@@]12C=C[C@H](O)[C@@](C)(C(=O)O1)[C@H]2[C@@H]3C(=O)O [GA3, Gibberellic acid, reference compound]
Percent (%) germination of seeds in relation to control on 9th day after sowing (Hordeum vulgare; 0.001 μM): 100%
Percent (%) root growth of seedlings in relation to control on 9th day after sowing (Hordeum vulgare; 0.001 μM): 132%
Percent (%) shoot growth of seedlings in relation to control on 9th day after sowing (Hordeum vulgare; 0.001 μM): 104%
Percent (%) germination of seeds in relation to control on 9th day after sowing (Hordeum vulgare; 0.01 μM): 100%
Percent (%) root growth of seedlings in relation to control on 9th day after sowing (Hordeum vulgare; 0.01 μM): 115%
Percent (%) shoot growth of seedlings in relation to control on 9th day after sowing (Hordeum vulgare; 0.01 μM): 91%
Percent (%) germination of seeds in relation to control on 9th day after sowing (Hordeum vulgare; 0.1 μM): 100%
Percent (%) root growth of seedlings in relation to control on 9th day after sowing (Hordeum vulgare; 0.1 μM): 70%
Percent (%) shoot growth of seedlings in relation to control on 9th day after sowing (Hordeum vulgare; 0.1 μM): 55%
Percent (%) germination of seeds in relation to control on 9th day after sowing ([1]; 0.001 μM): 100%
Percent (%) root growth of seedlings in relation to control on 9th day after sowing ([1]; 0.001 μM): 123%
Percent (%) shoot growth of seedlings in relation to control on 9th day after sowing ([1]; 0.001 μM): 116%
Percent (%) germination of seeds in relation to control on 9th day after sowing ([1]; 0.01 μM): 100%
Percent (%) root growth of seedlings in relation to control on 9th day after sowing ([1]; 0.01 μM): 45%
Percent (%) shoot growth of seedlings in relation to control on 9th day after sowing ([1]; 0.01 μM): 112%
Percent (%) germination of seeds in relation to control on 9th day after sowing ([1]; 0.1 μM): 100%
Percent (%) root growth of seedlings in relation to control on 9th day after sowing ([1]; 0.1 μM): 45%
Percent (%) shoot growth of seedlings in relation to control on 9th day after sowing ([1]; 0.1 μM): 93%
Seed germination as compared to 100% in control ([1]; Trigonella foenum-graceum, concentration not specified): 100%
Percent (%) germination of seeds in relation to control on 9th day after sowing (Triticum aestivum; 0.001 μM): 100%
Percent (%) root growth of seedlings in relation to control on 9th day after sowing (Triticum aestivum; 0.001 μM): 131%
Percent (%) shoot growth of seedlings in relation to control on 9th day after sowing (Triticum aestivum; 0.001 μM): 120%
Percent (%) germination of seeds in relation to control on 9th day after sowing (Triticum aestivum; 0.01 μM): 100%
Percent (%) root growth of seedlings in relation to control on 9th day after sowing (Triticum aestivum; 0.01 μM): 116%
Percent (%) shoot growth of seedlings in relation to control on 9th day after sowing (Triticum aestivum; 0.01 μM): 115%
Percent (%) germination of seeds in relation to control on 9th day after sowing (Triticum aestivum; 0.1 μM): 100%
Percent (%) root growth of seedlings in relation to control on 9th day after sowing (Triticum aestivum; 0.1 μM): 62%
Percent (%) shoot growth of seedlings in relation to control on 9th day after sowing (Triticum aestivum; 0.1 μM): 113%
Seed germination as compared to 100% in control (Vigna radiata; V.radiata, concentration not specified): 200%
Percent (%) germination of seeds in relation to control on 9th day after sowing (Vigna radiata; 0.001 μM): 200%
Percent (%) root growth of seedlings in relation to control on 9th day after sowing (Vigna radiata; 0.001 μM): 102%
Percent (%) shoot growth of seedlings in relation to control on 9th day after sowing (Vigna radiata; 0.001 μM): 126%
Percent (%) germination of seeds in relation to control on 9th day after sowing (Vigna radiata; 0.01 μM): 200%
Percent (%) root growth of seedlings in relation to control on 9th day after sowing (Vigna radiata; 0.01 μM): 103%
Percent (%) shoot growth of seedlings in relation to control on 9th day after sowing (Vigna radiata; 0.01 μM): 196%
Percent (%) germination of seeds in relation to control on 9th day after sowing (Vigna radiata; 0.1 μM): 200%
Percent (%) root growth of seedlings in relation to control on 9th day after sowing (Vigna radiata; 0.1 μM): 104%
Percent (%) shoot growth of seedlings in relation to control on 9th day after sowing (Vigna radiata; 0.1 μM): 183%
Seed Ger. (Hibiscus sabdariffa; 0.001 μM): 3
Root Growth (mm) 3rd Day (Hibiscus sabdariffa; 0.001 μM): 21.5 mm
Shoot growth 3rd Day (Hibiscus sabdariffa; 0.001 μM): 47.6
Root Growth (mm) 6th Day (Hibiscus sabdariffa; 0.001 μM): 22.8 mm
Shoot growth 6th Day (Hibiscus sabdariffa; 0.001 μM): 76.3
Root Growth (mm) 9th Day (Hibiscus sabdariffa; 0.001 μM): 25.0 mm
Shoot growth 9th Day (Hibiscus sabdariffa; 0.001 μM): 85.8
Seed Ger. (Hibiscus sabdariffa; 0.01 μM): 3
Root Growth (mm) 3rd Day (Hibiscus sabdariffa; 0.01 μM): 15.8 mm
Shoot growth 3rd Day (Hibiscus sabdariffa; 0.01 μM): 39.6
Root Growth (mm) 6th Day (Hibiscus sabdariffa; 0.01 μM): 16.6 mm
Shoot growth 6th Day (Hibiscus sabdariffa; 0.01 μM): 76.5
Root Growth (mm) 9th Day (Hibiscus sabdariffa; 0.01 μM): 16.6 mm
Shoot growth 9th Day (Hibiscus sabdariffa; 0.01 μM): 76.5
Seed Ger. (Hibiscus sabdariffa; 0.1 μM): 2
Root Growth (mm) 3rd Day (Hibiscus sabdariffa; 0.1 μM): 15.3 mm
Shoot growth 3rd Day (Hibiscus sabdariffa; 0.1 μM): 46.8
Root Growth (mm) 6th Day (Hibiscus sabdariffa; 0.1 μM): 29.3 mm
Shoot growth 6th Day (Hibiscus sabdariffa; 0.1 μM): 76.6
Root Growth (mm) 9th Day (Hibiscus sabdariffa; 0.1 μM): 32.0 mm
Shoot growth 9th Day (Hibiscus sabdariffa; 0.1 μM): 81.6
Seed Ger. (Sesbania cannabina; 0.001 μM): 1
Root Growth (mm) 3rd Day (Sesbania cannabina; 0.001 μM): 35.5 mm
Shoot growth 3rd Day (Sesbania cannabina; 0.001 μM): 31.0
Root Growth (mm) 6th Day (Sesbania cannabina; 0.001 μM): 34.0 mm
Shoot growth 6th Day (Sesbania cannabina; 0.001 μM): 85.6
Root Growth (mm) 9th Day (Sesbania cannabina; 0.001 μM): 40.0 mm
Shoot growth 9th Day (Sesbania cannabina; 0.001 μM): 103.6
Seed Ger. (Sesbania cannabina; 0.01 μM): 2
Root Growth (mm) 3rd Day (Sesbania cannabina; 0.01 μM): 23.5 mm
Shoot growth 3rd Day (Sesbania cannabina; 0.01 μM): 27.0
Root Growth (mm) 6th Day (Sesbania cannabina; 0.01 μM): 25.5 mm
Shoot growth 6th Day (Sesbania cannabina; 0.01 μM): 66.8
Root Growth (mm) 9th Day (Sesbania cannabina; 0.01 μM): 27.8 mm
Shoot growth 9th Day (Sesbania cannabina; 0.01 μM): 67.0
Seed Ger. (Sesbania cannabina; 0.1 μM): 1
Root Growth (mm) 3rd Day (Sesbania cannabina; 0.1 μM): 16.5 mm
Shoot growth 3rd Day (Sesbania cannabina; 0.1 μM): 32.5
Root Growth (mm) 6th Day (Sesbania cannabina; 0.1 μM): 16.6 mm
Shoot growth 6th Day (Sesbania cannabina; 0.1 μM): 42.3
Root Growth (mm) 9th Day (Sesbania cannabina; 0.1 μM): 26.6 mm
Shoot growth 9th Day (Sesbania cannabina; 0.1 μM): 61.3
